{"source": "patent US11384106B2", "about": "“Metal tricarbonyl complexes comprising substituted iminodiactic acid ligands and uses as radioisotope tracers” (priority 2015, dated 2022)", "key": {"[1]": {"settings": "relative to ^131I-OIH; cited from earlier work"}, "[2]": {"assay": "Stability of ^18F radiotracer solution (pH 7) by HPLC", "format": "physicochemical", "settings": "incubated for 23 hours", "method": "Re(CO)3(^18FFEDA) (3) was prepared by reacting the corresponding tosyl precursor, rheniumtricarbonyl-N-ethyltosylate iminodiacetate, Re(CO)3(TsDA), with [18F]fluoride ion (^18F) in anhydrous acetonitrile in the presence of K2CO3 and Kryptofix 222 at 110° C. for 20 min in a chemical processing control unit (CPCU). The resulting radiolabeled product was purified by semi-preparative high performance liquid chromatography (HPLC) using a Waters XTerra Prep RP 18 column (5 jam, 19×100 mm) and eluted with a mobile phase of 0.05 M triethylammonium phosphate (TEAP) buffer (pH=7)/ethanol (80:20 v/v) at a flow rate of 6 mL/min. The solution of the ^18F radiotracer (pH 7) was analyzed by HPLC for stability for up to 23 h."}, "[3]": {"system": "plasma protein", "assay": "Plasma protein binding (PPB) from 10 min blood samples", "format": "in vitro ADME", "settings": "rats", "method": "(§1) ^99mTc(CO)^3(FEDA) was evaluated in rats using ^131I-OIH as an internal control; urine was analyzed for metabolites. Plasma protein binding (PPB) and erythrocyte uptake (RCB) were determined from the 10 min blood samples. The Re(CO)3 analog was prepared for structural characterization."}, "[4]": {"system": "erythrocyte", "assay": "Erythrocyte uptake (RCB) from 10 min blood samples", "format": "in vitro ADME", "settings": "rats", "method": "as §1"}, "[5]": {"assay": "Stability of ^99mTc tracer at physiological pH / physiological conditions"}, "[6]": {"assay": "Evaluation in rats using ^131I-OIH as internal control (blood clearance, renal excretion, urine metabolites)", "format": "in vivo", "settings": "for % injected dose in the urine, as % of that of ^131I-OIH: relative to ^131I-OIH internal control", "method": "as §1"}}}
{"compound": "O=C([O-])CN=C([O-])CN=C([O-])CN=C([O-])C[S-].[O-2].[Tc+4]", "note": "[^99mTc-MAG3, ^99mTc-mercaptoacetyltriglycine]", "values": [{"measurement": "Clearance compared to ^131I-OIH", "setting": "[1]", "value": "50-65%"}]}
{"compound": "Re(CO)3(N-(2-^18fluoroethyl)iminodiacetate) [Re(CO)3(^18FFEDA)]", "values": [{"measurement": "Stability by HPLC analysis after incubation", "setting": "[2]", "value": "only intact"}]}
{"compound": "^99mTc(CO)3(N-(2-fluoroethyl)iminodiacetate) [^99mTc(CO)3(FEDA)]", "values": [{"measurement": "Plasma protein binding (PPB)", "setting": "[3]", "value": 61, "unit": "%"}, {"measurement": "Erythrocyte uptake (RCB)", "setting": "[4]", "value": 20, "unit": "%"}, {"measurement": "Stability (time stable)", "setting": "[5]; physiological conditions", "value": "at least 1 d"}, {"measurement": "Stability (time stable)", "setting": "[5]; physiological pH", "value": "≥ 24", "unit": "h"}, {"measurement": "Clearance compared with ^131I-OIH", "setting": "[6]; compared with gold standard ^131I-OIH", "value": "comparable to the gold standard"}, {"measurement": "Renal excretion", "setting": "[6]; rat studies, compared with ^99mTc-MAG3", "value": "rapid renal excretion"}, {"measurement": "Blood clearance", "setting": "[6]; rats", "value": "rapid blood clearance"}, {"measurement": "Specificity for renal excretion", "setting": "[6]; rats", "value": "high specificity for renal excretion"}, {"measurement": "Uptake in other organs", "setting": "[6]; rats", "value": "lack of significant uptake in other organs"}, {"measurement": "% injected dose in the urine, as % of that of ^131I-OIH", "setting": "[6]; rats, 10 min after injection", "value": 100, "unit": "%"}, {"measurement": "% injected dose in the urine, as % of that of ^131I-OIH", "setting": "[6]; rats, 60 min after injection", "value": 99, "unit": "%"}, {"measurement": "Metabolites in urine (form in which the tracer is excreted)", "setting": "[6]; rats, urine analyzed for metabolites", "value": "secreted intact in the urine"}]}
